Test results as given in patent publication US4463171A, “Derivatives of macrolide antibiotics” (Sanraku-Ocean Co., Ltd., priority 1982, dated 1984).
≈ marks a conversion by molar mass, not a printed value.

Legend:
[1] = system: Bacillus subtilis NRRL B558; assay: Antibacterial activity (minimum inhibitory concentration), tube dilution method; format: cell-based; conditions: Bacillus subtilis, NRRLB558; tube dilution method, brain heart infusion broth (pH 7.5); read-out: minimum inhibitory concentration, Bacillus subtilis NRRL B558
Experimental: (§1) The antibacterial activities of some typical compounds of this invention were measured by a tube dilution method in a brain heart infusion broth (pH 7.5) as a culture medium.

[2] = system: Klebsiella pneumoniae PCI602; assay: as above; format: cell-based; conditions: PCI602, tube dilution method, brain heart infusion broth (pH 7.5), read-out: minimum inhibitory concentration, Klebsiella pneumoniae PCI602
Experimental: as §1

[3] = system: Staphylococcus aureus 209P; assay: as above; format: cell-based; conditions: tube dilution method, brain heart infusion broth (pH 7.5), read-out: minimum inhibitory concentration, Staphylococcus aureus 209P
Experimental: as §1

[4] = system: Staphylococcus aureus MS9861; assay: as above; format: cell-based; conditions: Staphylococcus aureus, MS9861; tube dilution method, brain heart infusion broth (pH 7.5); read-out: minimum inhibitory concentration, Staphylococcus aureus MS9861
Experimental: as §1

[5] = cited from earlier work
[6] = cited from earlier work; remark: listed apart in the source

With `CCC1OC(=O)CC(O)C(C)C(OC2OC(C)C(OC3CC(C)(O)C(O)C(C)O3)C(N(C)C)C2O)C(CC=O)CC(C)C(=O)C=CC(C)=CC1COC(=O)C(O)c1ccccc1` (centres unmarked) [R1=H, R3=H, AR4=drawing 73] the MIC [1] was < 0.2 µg/mL, the MIC [2] was 12.5 µg/mL (≈ 14.3 µM) and the MIC [3] was 0.4 µg/mL (≈ 0.457 µM). The MIC [4] was 1.6 µg/mL (≈ 1.83 µM).

Compound `CCC1OC(=O)CC(O)C(C)C(OC2OC(C)C(OC3CC(C)(O)C(O)C(C)O3)C(N(C)C)C2O)C(CC=O)CC(C)C(=O)C=CC(C)=CC1COC(=O)C(NSc1ccccc1[N+](=O)[O-])c1ccccc1` (centres unmarked) [R1=H, R3=H, AR4=drawing 74] has an MIC [1] of 0.8 µg/mL (≈ 0.778 µM), an MIC [2] of 3.1 µg/mL (≈ 3.01 µM) and an MIC [3] of 0.8 µg/mL (≈ 0.778 µM). It also gave an MIC [4] of 3.1 µg/mL (≈ 3.01 µM).

Work on `CCC1OC(=O)CC(O)C(C)C(OC2OC(C)C(OC3CC(C)(O)C(O)C(C)O3)C(N(C)C)C2O)C(CC=O)CC(C)C(=O)C=CC(C)=CC1COS(=O)(=O)c1ccc(C)cc1` (centres unmarked) [R1=H, R3=H, AR4=drawing 79] yielded an MIC [1] of 0.4 µg/mL (≈ 0.446 µM), an MIC [2] of 25 µg/mL (≈ 27.9 µM) and an MIC [3] of 0.8 µg/mL (≈ 0.893 µM). For the same compound, the MIC [4] was 6.3 µg/mL (≈ 7.03 µM).

In the case of `CCC1OC(=O)CC(O)C(C)C(OC2OC(C)C(OC3CC(C)(O)C(O)C(C)O3)C(N(C)C)C2O)C(CC=O)CC(C)C(=O)C=CC(C)=CC1CSc1ccccc1` (centres unmarked) [R1=H, R3=H, AR4=drawing 80], the MIC [1] is reported as < 0.2 µg/mL, the MIC [2] is reported as 25 µg/mL (≈ 30 µM) and the MIC [3] is reported as < 0.2 µg/mL. For the same compound, the MIC [4] was 1.6 µg/mL (≈ 1.92 µM).

With `CCC1OC(=O)CC(O)C(C)C(OC2OC(C)C(OC3CC(C)(O)C(O)C(C)O3)C(N(C)C)C2O)C(CC=O)CC(C)C(=O)C=CC(C)=CC1CSc1nnnn1C` (centres unmarked) [R1=H, R3=H, AR4=drawing 81] the MIC [1] was < 0.2 µg/mL, the MIC [2] was 12.5 µg/mL (≈ 14.9 µM) and the MIC [3] was 0.8 µg/mL (≈ 0.952 µM). It also gave an MIC [4] of 3.1 µg/mL (≈ 3.69 µM).

`CCC1OC(=O)CC(O)C(C)C(OC2OC(C)C(OC3CC(C)(O)C(O)C(C)O3)C(N(C)C)C2O)C(CC=O)CC(C)C(=O)C=CC(C)=CC1COC1CCCCO1` (centres unmarked) [R1=H, R3=H, AR4=drawing 84] gave an MIC [1] of 0.8 µg/mL (≈ 0.968 µM), an MIC [2] of 12.5 µg/mL (≈ 15.1 µM) and an MIC [3] of 0.8 µg/mL (≈ 0.968 µM). The MIC [4] was 3.1 µg/mL (≈ 3.75 µM).

`CCC1OC(=O)CC(O)C(C)C(OC2OC(C)C(OC3CC(C)(O)C(OC(=O)CC(C)C)C(C)O3)C(N(C)C)C2O)C(CC=O)CC(C)C(=O)C=CC(C)=CC1CO` (centres unmarked) [R1=H, R3=drawing 66, AR4=OH, 4"-O-isovaleryl-YO-9010] gave an MIC [1] of 0.8 µg/mL (≈ 0.968 µM), an MIC [2] of 1.6 µg/mL (≈ 1.94 µM) and an MIC [3] of 0.4 µg/mL (≈ 0.484 µM). It also gave an MIC [4] of 1.6 µg/mL (≈ 1.94 µM).

With `CCC1OC(=O)CC(O)C(C)C(OC2OC(C)C(OC3CC(C)(O)C(OC(=O)CSc4ccccc4)C(C)O3)C(N(C)C)C2O)C(CC=O)CC(C)C(=O)C=CC(C)=CC1CO` (centres unmarked) [R1=H, R3=drawing 67, AR4=OH] the MIC [1] was < 0.2 µg/mL, the MIC [2] was 3.1 µg/mL (≈ 3.47 µM) and the MIC [3] was 0.4 µg/mL (≈ 0.448 µM). It also gave an MIC [4] of 3.1 µg/mL (≈ 3.47 µM).

`CCC1OC(=O)CC(O)C(C)C(OC2OC(C)C(OC3CC(C)(O)C(OC(=O)CC(C)C)C(C)O3)C(N(C)C)C2O)C(CC=O)CC(C)C(=O)C=CC(C)=CC1CBr` (centres unmarked) [R1=H, R3=drawing 68, AR4=Br, 23-Deoxy-23-bromo-4"-O-isovaleryl-YO-9010] showed an MIC [1] of 0.4 µg/mL (≈ 0.45 µM), an MIC [2] of 6.3 µg/mL (≈ 7.09 µM) and an MIC [3] of 0.8 µg/mL (≈ 0.9 µM). The MIC [4] was 1.6 µg/mL (≈ 1.8 µM).

In the case of `CCC1OC(=O)CC(O)C(C)C(OC2OC(C)C(OC3CC(C)(O)C(OC(=O)CSc4ccccc4)C(C)O3)C(N(C)C)C2O)C(CC=O)CC(C)C(=O)C=CC(C)=CC1CBr` (centres unmarked) [R1=H, R3=drawing 69, AR4=Br], the MIC [1] is reported as 1.6 µg/mL (≈ 1.68 µM), the MIC [2] is reported as > 100 µg/mL and the MIC [3] is reported as 0.4 µg/mL (≈ 0.419 µM). It also gave an MIC [4] of 3.1 µg/mL (≈ 3.25 µM).

In the case of `CCC1OC(=O)CC(O)C(C)C(OC2OC(C)C(OC3CC(C)(O)C(OC(=O)CSc4ccncc4)C(C)O3)C(N(C)C)C2O)C(CC=O)CC(C)C(=O)C=CC(C)=CC1CBr` (centres unmarked) [R1=H, R3=drawing 70, AR4=Br], the MIC [1] is reported as < 0.2 µg/mL, the MIC [2] is reported as 12.5 µg/mL (≈ 13.1 µM) and the MIC [3] is reported as 0.2 µg/mL (≈ 0.209 µM). It also gave an MIC [4] of 0.8 µg/mL (≈ 0.837 µM).

With `CCC1OC(=O)CC(O)C(C)C(OC2OC(C)C(OC3CC(C)(O)C(OC(=O)CC(C)C)C(C)O3)C(N(C)C)C2O)C(CC=O)CC(C)C(=O)C=CC(C)=CC1COC(C)=O` (centres unmarked) [R1=H, R3=drawing 75, AR4=OCOCH3, 23-O-Acetyl-4"-O-isovaleryl-YO-9010] the MIC [1] was 1.6 µg/mL (≈ 1.84 µM), the MIC [2] was 3.1 µg/mL (≈ 3.57 µM) and the MIC [3] was 0.8 µg/mL (≈ 0.922 µM). The MIC [4] was 6.3 µg/mL (≈ 7.26 µM).

For `CCC1OC(=O)CC(O)C(C)C(OC2OC(C)C(OC3CC(C)(O)C(OC(=O)CSc4ccccc4)C(C)O3)C(N(C)C)C2O)C(CC=O)CC(C)C(=O)C=CC(C)=CC1COC(C)=O` (centres unmarked) [R1=H, R3=drawing 76, AR4=OCOCH3], the MIC [1] was 0.2 µg/mL (≈ 0.214 µM), the MIC [2] was 100 µg/mL (≈ 107 µM) and the MIC [3] was 0.8 µg/mL (≈ 0.856 µM). The MIC [4] was 1.6 µg/mL (≈ 1.71 µM).

`CCC1OC(=O)CC(O)C(C)C(OC2OC(C)C(OC3CC(C)(O)C(OC(=O)CC(C)C)C(C)O3)C(N(C)C)C2O)C(CC=O)CC(C)C(=O)C=CC(C)=CC1COC(=O)CC(C)C` (centres unmarked) [R1=H, R3=drawing 77, AR4=drawing 78] gave an MIC [1] of 0.8 µg/mL (≈ 0.879 µM), an MIC [2] of 6.3 µg/mL (≈ 6.92 µM) and an MIC [3] of 1.6 µg/mL (≈ 1.76 µM). For the same compound, the MIC [4] was 12.5 µg/mL (≈ 13.7 µM).

In the case of `CCC1OC(=O)CC(O)C(C)C(OC2OC(C)C(OC3CC(C)(O)C(OC(=O)CC(C)C)C(C)O3)C(N(C)C)C2O)C(CC=O)CC(C)C(=O)C=CC(C)=CC1CSc1ccccc1` (centres unmarked) [R1=H, R3=drawing 82, AR4=drawing 83], the MIC [1] is reported as 3.1 µg/mL (≈ 3.38 µM), the MIC [2] is reported as > 100 µg/mL and the MIC [3] is reported as 3.1 µg/mL (≈ 3.38 µM). It also gave an MIC [4] of 6.3 µg/mL (≈ 6.86 µM).

For `CC[C@H]1OC(=O)C[C@@H](O)[C@H](C)[C@@H](O[C@@H]2O[C@H](C)[C@@H](O[C@H]3C[C@@](C)(O)[C@@H](O)[C@H](C)O3)[C@H](N(C)C)[C@H]2O)[C@@H](CC=O)C[C@@H](C)C(=O)/C=C/C(C)=C/[C@@H]1CO[C@@H]1O[C@H](C)[C@@H](O)[C@@H](OC)[C@H]1OC` [tylosin], the “antibacterial activity in vitro” value [5] is listed as “high antibacterial activity in vitro” and the “absorbability and excretability in vivo” value [6] is listed as “low”.
